Tests used:
Format in all cases: cell-based
[1] = system: p53 (wild-type p53 MCF7 cells); experiment: p53 and Δ133p53 mRNA level by RT-qPCR in MCF7 cells; settings: 5 μM, 48 hours, vs DMSO
Description: (§1) The compounds of the invention have been tested according to the following pharmacological test and the three compounds have been more particularly tested: (40), (1) and (45), all diluted in DMSO. Their effects were thus compared to cells treated with DMSO. A positive control was used, TG003, a benzothiazole compound known to alter splicing through the inhibition of Clk/Sty family activity (Sigma, ref: T5575).
(§2) Two breast cancer cell lines have been treated with 5 μM of drugs for 48 hours: wild-type p53 MCF7 cells and mutant p53 (R280K) MDA-MB-231-Luc-D3H2N provided by Caliper Life Science (parental Line source: American Type Culture collection). The MDA-MB-231-Luc-D3H2N cells were maintained in two different media during treatment: a DMEM supplemented with 10% foetal calf serum (FCS) and a FCS-free medium for 24 hours followed by 24 hours in a complete medium. The MC7 cells were maintained in a DMEM/FCS 10% medium.
(§3) Cells were harvested after 48 hours of treatment. Total RNAs (RNeasy Mini-Kit, Qiagen) and proteins (NuPage LDS 1×, Invitrogen) were extracted to analyse mRNA expression by nested RT-PCR or RT-qPCR and protein expression by Western Blot.
(§4) Analysis of p53 expression was assessed both at mRNA (full-length and truncated, Δ133p53 isoforms) and protein (full-length) levels by RT-qPCR and Western Blot, respectively.
(§5) The p53 isoform cDNA being too long to be specifically quantified by RT-qPCR, a semi-quantitative RT-PCR method was therefore used, requiring high quality total RNA 28S/18S ratio (>1.5). After reverse-transcription of 500 ng of total RNA using random primers, actin cDNA was amplified by PCR to confirm reverse-transcription efficiency. 0.5 μg of total RNA from each tumour sample was reverse-transcribed (AMV RT, 45 C, random primer) and cDNA quality confirmed by amplification of actin by PCR in 30 cycles. p53 isoform cDNA was amplified by 2 nested PCR of 30 cycles using primers specific of each isoforms as described in Bourdon et al. (Genes Dev., 2005, 19: 2122). Tumours were considered to express each p53 isoform after sequencing of the corresponding PCR fragment.

[2] = system: p53 (wild-type p53 MCF7 cells); experiment: p53 protein expression by Western Blot (4 antibodies) in MCF7 cells; settings: 5 μM, 48 hours, vs DMSO
Description: as §1, §2
Cells were harvested after 48 hours of treatment. […]
(§6) p53 protein expression was determined using a panel of 4 different antibodies, namely DO1, SAPLI, CMI and DO12 as described in Bourdon et al. (Genes Dev., 2005, 19: 2122), to avoid problem of detection due to post-translational modification.
The amount of total proteins in each extract was quantified using BCA kit (promega). […]
(§7) Scanned autoradiographs were quantified using AIDA/2D densitometry software.

[3] = system: p53-target genes Hdm2, Bcl-2, p21 (wild-type p53 MCF7 cells); experiment: p53 transcriptional activity: p53-target gene expression by Western-blot in MCF7 cells; settings: 5 μM, 48 hours
Description: as §1, §2, §3
(§8) Analysis of p53 transcriptional activity was assessed through analysis of p53-target gene expression by Western-blot. Four p53-target genes were studied: Hdm2, Bcl-2, p21 and Bax. Hdm2 is known to bind p53 and to negatively regulate p53 activity and stability. p21 is known to mediate p53 dependent cycle arrest. Bcl 2 is known to have an anti-proliferative effect and an apoptotic protective effect, while Bax is known to have a pro-apoptic effect. Bax was not detected in both MCF7 and MDA-MB-231-Luc-D3H2N cells, while p21 was not detected in MDA-MB-231-Luc-D3H2N cells maintained in FCS-free medium. The Western-blot was performed as above described using the antibodies described in Bourdon et al., Genes Dev., 2005, 19: 2122.

[4] = system: p53 (mutant p53 (R280K) MDA-MB-231-Luc-D3H2N cells); experiment: p53 mRNA level by RT-qPCR in MDA-MB-231-Luc-D3H2N cells; settings: 5 μM, 48 hours; for p53 expression at mRNA levels (total isoforms, TA): mutant p53 MDA-MB-231-Luc-D3H2N cells in normal medium
Description: as §1, §2, §3, §4, §5

[5] = system: p53 (mutant p53 (R280K) MDA-MB-231-Luc-D3H2N cells); experiment: p53 protein expression by Western Blot (4 antibodies) in MDA-MB-231-Luc-D3H2N cells; settings: 5 μM, 48 hours
Description: as §1, §2, §3, §6
The amount of total proteins in each extract was quantified using BCA kit (promega). 8% SDS-PAGE gels were used. Equal amount (30 μg) of proteins was loaded on each lane. Proteins were then transferred electrophoretically on nitrocellulose membrane. Membranes were blocked in TBS/0.1% Tween 20 containing 3% milk for one hour and then incubated overnight with the primary antibodies diluted in TBS/0.1% Tween 20 containing 3% milk. After several washes in TBS/Tween, membranes were incubated with anti-rabbit Ig antibodies linked to HRP. Membranes were developed with ECL according to the manufacturer's instructions.
as §7

[6] = system: p53-target genes Hdm2, Bcl-2, p21 (mutant p53 MDA-MB-231-Luc-D3H2N cells); experiment: p53 transcriptional activity: p53-target gene expression by Western-blot in MDA-MB-231-Luc-D3H2N cells; settings: 5 μM, 48 hours
Description: as §1, §2, §3, §8

[7] = system: p53 isoforms produced by alternative splicing (wild-type p53 MCF7 cells); experiment: p53 isoforms (α, β, γ) expression at mRNA level in MCF7 cells; settings: 5 μM, 48 hours, RT-qPCR
Description: as §2, §3
(§9) Expression of p53 isoforms produced by alternative splicing (α, β and γ) was analysed at mRNA levels by RT-qPCR using primers/probe specific of each C-terminal variants. The α-forms are the most abundant forms. In the low abundant forms, β-forms are more expressed than γ-forms.
as §5, with “A semi-quantitative” for “The p53 isoform cDNA being too long to be specifically quantified by RT-qPCR, a semi-quantitative”, “method” for “method was therefore used,”, “RT, 45C,” for “RT, 45 C,”, “described by” for “described in”

[8] = system: p53 isoforms produced by alternative splicing (mutant p53 MDA-MB-231-Luc-D3H2N cells); experiment: p53 isoforms (α, β, γ) expression at mRNA level in MDA-MB-231-Luc-D3H2N cells; settings: 5 μM, 48 hours, RT-qPCR
Description: as §2, §3, §9
as §5, with “A semi-quantitative” for “The p53 isoform cDNA being too long to be specifically quantified by RT-qPCR, a semi-quantitative”, “method” for “method was therefore used,”, “RT, 45C,” for “RT, 45 C,”, “described by” for “described in”

[9] = mutant p53 MDA-MB-231-Luc-D3H2N cells in FCS-free medium
[10] = mutant p53 MDA-MB-231-Luc-D3H2N cells in normal medium

SMILES	total p53 expression (total isoforms, TA) at mRNA levels [1]	p53 protein levels (full-length) [2]	expression of Bcl-2 (p53-target gene) [3]	expression of Hdm2 (p53-target gene) [3]	p53 expression at mRNA levels (total isoforms, TA) [4]	p53 protein levels (full-length) [5, 9]	p53 protein levels (full-length) [5, 10]	p53-target genes expression [6, 10]	expression of p53 β-forms (mRNA) [7]	expression of p53 γ-forms (mRNA) [7]	p53 α-form expression at mRNA levels [7]	p53 α-form expression at mRNA levels [8, 9]	expression of p53 β-forms (mRNA) [8, 10]	expression of p53 γ-forms (mRNA) [8, 10]	p53 α-form expression at mRNA levels [8, 10]	further results
CCN(CC)CCCNC(=O)c1cccc(Nc2cccc(/C=C/c3ccc(OC)cc3)c2)c1 [Compound 40]	did not change	decreased	decreased expression	decreased expression	decreased	did not change	did not change	did not affect	tend to increase	tend to increase	did not change	did not change	tend to increase	tend to increase	did not change	Δ133p53 mRNA level [1]: increased; p53-target genes expression [6, 9]: did not affect
CCN(CC)CCNC(=O)c1ccccc1Nc1ccc(OC(F)(F)F)cc1 [Compound 45, N-(2-diethylamino-ethyl)-2-(4-trifluoromethoxy-phenylamino)-benzamide]	did not change	decreased	decreased expression	decreased expression	decreased	did not change	did not change	slight decrease	tend to increase	tend to increase	did not change	did not change	tend to increase	tend to increase	did not change	p53 expression at mRNA levels (total isoforms, TA): decreased or not [4, 9]: decreased; expression of Bcl-2 (p53-target gene) [6, 9]: slight decrease; expression of p53 β-forms (mRNA) [8, 9]: tend to increase; expression of p53 γ-forms (mRNA) [8, 9]: tend to increase; significant increase of p53 β-forms (mRNA) [8, 10]: 3 fold; significant increase of p53 γ-forms (mRNA) [8, 10]: 2 fold

Source: patent publication US10538485B2, “Compounds for use as therapeutic agents affecting P53 expression and/or activity” (ABIVAX, priority 2011, dated 2020)
